According to PubChem BioAssay AID2060336 (Molecular Pharmacology Branch, DTP, NCI, 2025):

System: 958767-090-R-J1-PDC spheroid growth
Assay: Anticancer human tumor 958767-090-R-J1-PDC patient-derived head and neck squamous carcinoma cell line growth inhibition [IpAb]
Settings: spheroids with HUVEC and MSC; for IC50: curve of first compound; for viability, T/C: stronger effect = lower value
Method in brief: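 Multi-cell spheroids of 60% tumour cells, 25% HUVEC and 15% MSC in ultra-low-attachment U-bottom wells, treated with agents combined with ipatasertib or abemaciclib. Half-log ranges top out near clinical Cmax, or 10 microM when Cmax is unknown.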

[1] = second compound 0.01 µM, first compound 0.0316 µM
[2] = second compound 0.01 µM, first compound 0.1 µM
[3] = second compound 0.0316 µM, first compound 0.0316 µM
[4] = second compound 0.0316 µM, first compound 0.1 µM
[5] = second compound 0.1 µM, first compound 0.0316 µM
[6] = second compound 0.1 µM, first compound 0.1 µM
[7] = second compound 0.316 µM, first compound 0.0316 µM
[8] = second compound 0.316 µM, first compound 0.1 µM
[9] = second compound 1 µM, first compound 0.0316 µM
[10] = second compound 1 µM, first compound 0.1 µM
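Also: spheroids exposed to agents for 7 days.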
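For viability, T/C in this document: 100% = DMSO vehicle control wells.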

Question: For Cn1ncc(Cl)c1-c1cc(C(=O)NC(CN)Cc2cccc(F)c2)sc1Cl (stereo not given) + CCN1CCN(Cc2ccc(Nc3ncc(F)c(-c4cc(F)c5nc(C)n(C(C)C)c5c4)n3)nc2)CC1, which IC50 (second compound 0.01 µM) is on record?
Answer: 786 nM

Question: What about the IC50 (second compound 0.0316 µM) of the same compound?
Answer: 647 nM

Question: And the IC50 (second compound 0.1 µM)?
Answer: 614 nM

Question: And the IC50 (second compound 0.316 µM)?
Answer: 1080 nM

Question: And the IC50 (second compound 1 µM)?
Answer: 818 nM

Question: What about the viability, T/C [1] of the same compound?
Answer: 89.7%

Question: And the viability, T/C [2]?
Answer: 76.1%

Question: What about the viability, T/C (second compound 0.01 µM, first compound 0.316 µM) of the same compound?
Answer: 58.8%

Question: What about the viability, T/C (second compound 0.01 µM, first compound 1 µM) of the same compound?
Answer: 45.4%

Question: What about the viability, T/C (second compound 0.01 µM, first compound 3.16 µM) of the same compound?
Answer: 33.5%

Question: And the viability, T/C (second compound 0.01 µM, first compound 10 µM)?
Answer: 0.14%

Question: And the viability, T/C [3]?
Answer: 75.1%

Question: What about the viability, T/C [4] of the same compound?
Answer: 74.5%

Question: What about the viability, T/C (second compound 0.0316 µM, first compound 0.316 µM) of the same compound?
Answer: 62.6%

Question: And the viability, T/C (second compound 0.0316 µM, first compound 1 µM)?
Answer: 38.3%

Question: And the viability, T/C (second compound 0.0316 µM, first compound 3.16 µM)?
Answer: 25.5%

Question: And the viability, T/C (second compound 0.0316 µM, first compound 10 µM)?
Answer: 0.15%

Question: What about the viability, T/C [5] of the same compound?
Answer: 73.2%

Question: And the viability, T/C [6]?
Answer: 65.9%

Question: And the viability, T/C (second compound 0.1 µM, first compound 0.316 µM)?
Answer: 51.5%

Question: What about the viability, T/C (second compound 0.1 µM, first compound 1 µM) of the same compound?
Answer: 46.1%

Question: What about the viability, T/C (second compound 0.1 µM, first compound 3.16 µM) of the same compound?
Answer: 30.3%

Question: And the viability, T/C (second compound 0.1 µM, first compound 10 µM)?
Answer: 0.18%

Question: What about the viability, T/C [7] of the same compound?
Answer: 62.7%

Question: What about the viability, T/C [8] of the same compound?
Answer: 46.6%

Question: And the viability, T/C (second compound 0.316 µM, first compound 0.316 µM)?
Answer: 47.1%

Question: What about the viability, T/C (second compound 0.316 µM, first compound 1 µM) of the same compound?
Answer: 52.5%

Question: What about the viability, T/C (second compound 0.316 µM, first compound 3.16 µM) of the same compound?
Answer: 19.7%

Question: And the viability, T/C (second compound 0.316 µM, first compound 10 µM)?
Answer: 0.17%

Question: And the viability, T/C [9]?
Answer: 83.7%

Question: What about the viability, T/C [10] of the same compound?
Answer: 63.3%

Question: What about the viability, T/C (second compound 1 µM, first compound 0.316 µM) of the same compound?
Answer: 62.3%

Question: And the viability, T/C (second compound 1 µM, first compound 1 µM)?
Answer: 50.9%

Question: What about the viability, T/C (second compound 1 µM, first compound 3.16 µM) of the same compound?
Answer: 27.9%

Question: And the viability, T/C (second compound 1 µM, first compound 10 µM)?
Answer: 1.92%

Question: How did the IC50 (second compound 0.01 µM) turn out when Cn1ncnc1[C@H]1c2n[nH]c(=O)c3cc(F)cc(c23)N[C@@H]1c1ccc(F)cc1 + CCN1CCN(Cc2ccc(Nc3ncc(F)c(-c4cc(F)c5nc(C)n(C(C)C)c5c4)n3)nc2)CC1 was run?
Answer: > 100 nM

Question: What about the IC50 (second compound 0.0316 µM) of the same compound?
Answer: > 100 nM

Question: What about the IC50 (second compound 0.1 µM) of the same compound?
Answer: > 100 nM

Question: What about the IC50 (second compound 0.316 µM) of the same compound?
Answer: 32.2 nM

Question: And the IC50 (second compound 1 µM)?
Answer: > 100 nM

Question: And the viability, T/C (second compound 0.01 µM, first compound 0.000316 µM)?
Answer: 90.1%

Question: And the viability, T/C (second compound 0.01 µM, first compound 0.001 µM)?
Answer: 93.3%

Question: And the viability, T/C (second compound 0.01 µM, first compound 0.00316 µM)?
Answer: 66.3%

Question: What about the viability, T/C (second compound 0.01 µM, first compound 0.01 µM) of the same compound?
Answer: 84%

Question: And the viability, T/C [1]?
Answer: 75%

Question: What about the viability, T/C [2] of the same compound?
Answer: 66%

Question: And the viability, T/C (second compound 0.0316 µM, first compound 0.000316 µM)?
Answer: 83.6%

Question: What about the viability, T/C (second compound 0.0316 µM, first compound 0.001 µM) of the same compound?
Answer: 75.1%

Question: What about the viability, T/C (second compound 0.0316 µM, first compound 0.00316 µM) of the same compound?
Answer: 67.8%

Question: And the viability, T/C (second compound 0.0316 µM, first compound 0.01 µM)?
Answer: 46.2%

Question: And the viability, T/C [3]?
Answer: 52.8%

Question: And the viability, T/C [4]?
Answer: 67.4%

Question: What about the viability, T/C (second compound 0.1 µM, first compound 0.000316 µM) of the same compound?
Answer: 68.8%

Question: What about the viability, T/C (second compound 0.1 µM, first compound 0.001 µM) of the same compound?
Answer: 64.6%

Question: What about the viability, T/C (second compound 0.1 µM, first compound 0.00316 µM) of the same compound?
Answer: 60.8%

Question: And the viability, T/C (second compound 0.1 µM, first compound 0.01 µM)?
Answer: 56.6%

Question: What about the viability, T/C [5] of the same compound?
Answer: 50.2%

Question: And the viability, T/C [6]?
Answer: 59.4%

Question: And the viability, T/C (second compound 0.316 µM, first compound 0.000316 µM)?
Answer: 59.2%

Question: What about the viability, T/C (second compound 0.316 µM, first compound 0.001 µM) of the same compound?
Answer: 53.8%

Question: What about the viability, T/C (second compound 0.316 µM, first compound 0.00316 µM) of the same compound?
Answer: 49.3%

Question: And the viability, T/C (second compound 0.316 µM, first compound 0.01 µM)?
Answer: 54%

Question: What about the viability, T/C [7] of the same compound?
Answer: 56.8%

Question: And the viability, T/C [8]?
Answer: 43.4%

Question: And the viability, T/C (second compound 1 µM, first compound 0.000316 µM)?
Answer: 70.8%

Question: What about the viability, T/C (second compound 1 µM, first compound 0.001 µM) of the same compound?
Answer: 73.7%

Question: And the viability, T/C (second compound 1 µM, first compound 0.00316 µM)?
Answer: 70.5%

Question: And the viability, T/C (second compound 1 µM, first compound 0.01 µM)?
Answer: 60.2%

Question: What about the viability, T/C [9] of the same compound?
Answer: 56.6%

Question: What about the viability, T/C [10] of the same compound?
Answer: 58.2%
